This is an account of results in patent US20070129320A9, “Methods and compositions for inducing innate immune responses” (Coley Pharmaceutical Group, Ltd., priority 2004, published 2007).

Test [1] concerns Renca (renal carcinoma) cells. Kind of test: Renal cell carcinoma (Renca) tumor model in mice: survival and tumor growth. As to conditions: co-administration of immune stimulating complex (ISCOMATRIX adjuvant) with ODN 7909, compared with either agent alone.
Method: • Mice: All experiments were carried out using female BALB/c mice aged 6-8 weeks with 10 mice per experimental or control group. • Oligonucleotides: All oligonucleotides were obtained from Coley Pharmaceutical GmbH, Langenfeld, Germany. • Immune stimulating complexes: ISCOMATRIX® adjuvant, herein referred to as IMX, was the immune stimulating complex used in these Examples.
Female BALB/c mice (n=10 per group) were injected with 2×10^5 Renca (renal carcinoma) cells by SC injection into the left flank. Animals were treated with CpG 7909 alone, ISCOMATRIX® (IMX) alone or a combination of CpG 7909 and INIX administered by SC injection into the tumor perimeter weekly from day 10-28 post tumor cell injection. Control animals were injected with 100 μl of phosphate buffered saline (PBS) weekly from day 10-38 post tumor cell injection. Animals were monitored for survival (FIG. 1, panel A) and tumor growth (FIG. 1, panel B). Tumor size (length and width) was measured using a digital vernier calliper. Tumor volume was calculated by using the formula: Tumor volume=(0.4) (ab2), where a=large diameter and b=smaller diameter. In the tumor volume graph (FIG. 1, panel B), changes in average tumor volume are indicated until 50% death in each animal group.
In a further test the test system is murine cancer models. The following applies: cited from earlier work.

As for “TCGTCGTTTTGTCGTTTTGTCGTT [CpG 7909]”, in test [1], the survival result is listed as “increased survival” and the tumor growth entry is listed as “controlled tumor growth better than did either agent alone”. Besides, the anti-tumor effects result with murine cancer models (several murine cancer models, demonstrated previously) is on record as “demonstrated previously”. The “effect on anti-tumor effects of chemotherapeutic drugs” value in the test with murine cancer models (shown previously) was “augment the anti-tumor effects of some chemotherapeutic drugs”.
